Measured values: ChEMBL document CHEMBL3098116, “Synthesis and biological evaluation of the pirfenidone derivatives as antifibrotic agents” (Bioorg Med Chem Lett, 2014)

How the values were obtained:
MRC5 = assay: Antifibrotic activity in human MRC5 cells assessed as inhibition of cell growth after 24 hrs by MTT assay; type: functional, cell-based; conditions: MRC5, 24 h
[1] = target: T1, Mitogen-activated protein kinase 14 (Homo sapiens, UniProt Q16539); assay: Inhibition of p38alpha (unknown origin) up to 60 mins by ADP-Glo assay
T1 sequence (Q16539 whole entry): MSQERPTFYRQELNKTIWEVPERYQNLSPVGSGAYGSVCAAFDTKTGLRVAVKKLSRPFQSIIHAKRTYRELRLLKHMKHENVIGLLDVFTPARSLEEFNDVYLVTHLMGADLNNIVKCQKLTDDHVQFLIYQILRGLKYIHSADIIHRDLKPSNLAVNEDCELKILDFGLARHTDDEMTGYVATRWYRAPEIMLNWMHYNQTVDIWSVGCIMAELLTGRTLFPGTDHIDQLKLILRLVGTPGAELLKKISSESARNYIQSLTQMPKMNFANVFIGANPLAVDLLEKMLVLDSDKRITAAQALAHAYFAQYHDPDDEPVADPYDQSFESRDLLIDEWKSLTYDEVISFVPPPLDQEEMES

[2] = target: T1, Mitogen-activated protein kinase 14; assay: Ratio of pirfenidone IC50 for compound IC50 for p38alpha (unknown origin) up to 60 mins by ADP-Glo assay

| IC50 [1] [µM] | Ratio IC50 [2] | SMILES | IC50 (MRC5) [µM] |
| --- | --- | --- | --- |
|  |  | Cc1ccc(=O)n(-c2ccc(OCCN3CCN(C)CC3)cc2)c1 | 1360 |
| 5.21 |  | Cc1ccc(=O)n(-c2ccc(OCCCCN3CCCCC3)cc2)c1 | 3290 |
| 165 |  | Cc1ccc(=O)n(-c2ccccc2)c1 [PIRFENIDONE] | 14400 |
|  |  | CCN(CC)CCCCOc1ccc(-n2cc(C)ccc2=O)cc1 | 2160 |
| 4.07 | 40 | Cc1ccc(=O)n(-c2ccc(OCCCN3CCCCC3)cc2)c1 | 2550 |
|  |  | Cc1ccc(=O)n(-c2ccc(OCCCN3CCN(C)CC3)cc2)c1 | 4360 |
|  |  | Cc1ccc(=O)n(-c2ccc(OCCN3CCCC3)cc2)c1 | 3780 |
|  |  | Cc1ccc(=O)n(-c2ccc(OCCCCCN3CCOCC3)cc2)c1 | 2590 |
|  |  | Cc1ccc(=O)n(-c2ccc(OCCN(C)C)cc2)c1 | 6880 |
|  |  | Cc1ccc(=O)n(-c2ccc(OCCCCN(C)C)cc2)c1 | 1800 |
|  |  | Cc1ccc(=O)n(-c2ccc(OCCCCCN(C)C)cc2)c1 | 2980 |
|  |  | CCN(CC)CCCOc1ccc(-n2cc(C)ccc2=O)cc1 | 2100 |
|  |  | Cc1ccc(=O)n(-c2ccc(OCCCCN3CCN(C)CC3)cc2)c1 | 2330 |
|  |  | Cc1ccc(=O)n(-c2ccc(OCCN3CCOCC3)cc2)c1 | 7640 |
|  |  | CCN(CC)CCOc1ccc(-n2cc(C)ccc2=O)cc1 | 6200 |
| 16.2 |  | Cc1ccc(=O)n(-c2ccc(OCCCCCN3CCCCC3)cc2)c1 | 3670 |
|  |  | CCN(CC)CCCCCOc1ccc(-n2cc(C)ccc2=O)cc1 | 4350 |
|  |  | Cc1ccc(=O)n(-c2ccc(OCCCN3CCOCC3)cc2)c1 | 5280 |
|  |  | Cc1ccc(=O)n(-c2ccc(OCCCN3CCCC3)cc2)c1 | 3000 |
| 54.3 |  | Cc1ccc(=O)n(-c2ccc(OCCN3CCCCC3)cc2)c1 | 2480 |
|  |  | Cc1ccc(=O)n(-c2ccc(OCCCCN3CCCC3)cc2)c1 | 1770 |
| 14.2 |  | Cc1ccc(=O)n(-c2ccc(OCCCN(C)C)cc2)c1 | 5220 |
|  |  | Cc1ccc(=O)n(-c2ccc(OCCCCN3CCOCC3)cc2)c1 | 3030 |
|  |  | Cc1ccc(=O)n(-c2ccc(OCCCCCN3CCCC3)cc2)c1 | 1470 |
|  |  | Cc1ccc(=O)n(-c2ccc(OCCCCCN3CCN(C)CC3)cc2)c1 | 3410 |
